Tests used:
[1] = test system: DDX3X-K118Ac; experiment: DDX3X acetylation in HEK293T cells expressing CBP or p300 (immunoprecipitation and immunoblotting); format: cell-based, human; conditions: for DDX3X-K118Ac signal after treating the cells with HDAC inhibitors: HEK293T cells transiently expressing CBP, DDX3X-K118Ac-specific antibody
Protocol: HEK293T cells were transfected with Lipofectamine 2000 (Life Technologies) or FuGENE HD (Promega), and MEF cells were transfected with 4D-Nucleofector™ System (Lonza), following manufacturer's protocol.
Cells were washed by ice-cold PBS and lysed in Triton lysis buffer (50 mM Tris-HCl, pH8.0, 150 mM sodium chloride, 1 mM EDTA, 0.1% TritonX-100 and Complete EDTA-free protease inhibitors (Roche)) for analysis. To detect protein acetylation, 0.2 μM Trichostatin A and 5 mM nicotinamide was added to PBS for wash, and 10 μM Trichostatin A, 10 mM nicotinamide, 50 mM sodium butyrate were added to Triton lysis buffer. To detect protein phosphorylation, Pierce Protease and Phosphatase Inhibitor Mini Tablets (Thermo scientific) were added to Triton lysis buffer instead of Complete EDTA-free protease inhibitors. Five hundred μg protein lysates were incubated with the specific antibody for overnight at 4° C., and immunoprecipitated with Dynabeads ProteinG (invitrogen) for 1 h at 4° C. Samples were boiled for 10 min in SDS-PAGE sample buffer, and separated with 4-12% NuPAGE gels (invitrogen). […] For inhibition of HDACs in cells, concentration of each HDAC inhibitor was as described in {Scholz, 2015 #851}.
(§1) To investigate whether DDX3X-K118Ac is a direct target site of HDAC6, the inventors performed a biochemical assay using purified components. […] Next, they tested the acetylation status of DDX3X in cells. It has been shown that the stoichiometry of acetylation is generally low {Weinert, 2014 #452}, making it difficult to detect. The inventors therefore attempted to enhance the level of acetylation by expressing different HATs. To test which HAT(s) can act on DDX3X, expression vectors for PCAF, CBP, Tip60 or p300 were individually transfected into HEK293T cells and cellular extracts were analyzed by immunoprecipitation and immunoblotting.
Different deacetylases often redundantly target the same lysine acetylation site on a target protein. […] To test whether the DDX3X-K118 deacetylation is specific for HDAC6, the inventors transiently expressed CBP in HEK293T cells and assessed the DDX3X-K118Ac signal after treating the cells with several HDAC inhibitors.

[2] = target: T1, Danio rerio HDAC6 CD1-CD2 (a.a.40-831) (Danio rerio, UniProt F8W4B7); experiment: In vitro HDAC6 deacetylation assay with DDX3X-K118 acetylated peptide; format: biochemical; conditions: 1 μM Trichostatin A, 3 hours, 37° C., HPLC UV 214 nm
T1 construct: Danio rerio HDAC6 CD1-CD2 (a.a.40-831) was expressed in Sf9 insect cells; made in house; host or cells: Sf9 insect cells
T1 sequence (F8W4B7 40-831): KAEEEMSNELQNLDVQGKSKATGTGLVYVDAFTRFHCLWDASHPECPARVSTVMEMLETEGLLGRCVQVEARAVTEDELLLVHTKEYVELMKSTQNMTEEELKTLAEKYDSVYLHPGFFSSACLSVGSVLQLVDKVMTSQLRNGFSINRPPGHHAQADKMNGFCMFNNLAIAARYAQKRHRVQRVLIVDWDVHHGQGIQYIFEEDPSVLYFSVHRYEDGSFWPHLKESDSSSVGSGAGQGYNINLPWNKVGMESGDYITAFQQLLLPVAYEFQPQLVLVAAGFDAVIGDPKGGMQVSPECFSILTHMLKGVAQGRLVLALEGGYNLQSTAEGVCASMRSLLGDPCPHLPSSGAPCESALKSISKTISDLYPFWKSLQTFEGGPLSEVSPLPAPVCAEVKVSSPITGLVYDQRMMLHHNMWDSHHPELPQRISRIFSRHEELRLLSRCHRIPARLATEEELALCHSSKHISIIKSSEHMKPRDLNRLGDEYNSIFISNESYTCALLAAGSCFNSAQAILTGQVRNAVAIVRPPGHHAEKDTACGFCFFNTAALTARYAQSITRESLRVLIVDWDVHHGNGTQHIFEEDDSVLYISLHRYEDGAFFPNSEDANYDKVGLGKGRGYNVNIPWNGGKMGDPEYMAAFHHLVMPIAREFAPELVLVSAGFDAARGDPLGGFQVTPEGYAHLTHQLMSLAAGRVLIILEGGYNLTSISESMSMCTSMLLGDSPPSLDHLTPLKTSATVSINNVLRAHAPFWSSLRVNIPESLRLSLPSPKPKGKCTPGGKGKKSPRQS
Source text: as §1

[3] = test system: DDX3X-K118 acetylation; experiment: DDX3X-K118 acetylation under arsenite-induced oxidative stress (immunoblotting); format: cell-based

Row | Molecule | DDX3X-K118Ac signal after treating the cells with HDAC inhibitors [1] | further results
1 | CCCCOc1ccc(CC(=O)NO)cc1 [Bufexamac] | increased | –
2 | CC(/C=C/C(=O)NO)=C\[C@@H](C)C(=O)c1ccc(N(C)C)cc1 [Trichostatin A] | – | deacetylation of the DDX3X-K118Ac peptide by purified tandem HDAC6 catalytic domains [2]: inhibited
3 | O=C(CCCCCCC(=O)Nc1ccc([C@H]2O[C@@H](CSc3nc(-c4ccccc4)c(-c4ccccc4)o3)C[C@@H](c3ccc(CO)cc3)O2)cc1)NO [Tubacin] | increased | acetylation level of endogenous or overexpressed DDX3X ([1]; HEK293T cells transfected with CBP or p300 (with or without DDX3X construct), treatment of the cells with inhibitor): increased even further; DDX3X-K118 acetylation after arsenite treatment plus HDAC6 inhibitor ([3]; WT cells treated with arsenite and also with Tubacin): further increased
4 | CN1CCc2c(c3ccccc3n2Cc2ccc(C(=O)NO)cc2)C1 [Tubastatin A] | increased | –
5 | NC(=O)c1cccnc1 [nicotinamide] | neither nicotinamide, a sirtuin deacetylase inhibitor, nor sodium butyrate, a class I HDAC inhibitor, altered the acetylation status | –
6 | CCCC(=O)[O-].[Na+] [sodium butyrate] | neither nicotinamide, a sirtuin deacetylase inhibitor, nor sodium butyrate, a class I HDAC inhibitor, altered the acetylation status | –
7 | sodium arsenite | – | DDX3X-K118 acetylation after arsenite treatment [3]: increased
